Counter-ions that a name gives are not always drawn.
Key:
[1] = target: human KAT II (hKAT II) enzyme (Homo sapiens, UniProt Q8N5Z0); test: KAT II Inhibition Spectra Assay; type: biochemical; conditions: Table 6; hKAT II, decrease in OD370, 37° C., 15-20 h; read-out: KATII IC50
In short: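 hKAT II (15 nM, 3× stock) converts L-kynurenine (3 mM, 3× stock) with α-ketoglutarate and PLP in Tris acetate; 15–20 h at 37 °C. Inhibition of the OD370 decrease read versus DMSO wells across a concentration range gives IC50.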

[2] = Prodrug in vivo pharmacokinetics in dogs (plasma, LC-MS-MS); set-up: species or system Dog (Beagle); conditions: for AUC / Cmax / Tmax / half-life: Beagle, dog
Method: Test substances (Examples 4 and 71-73) were administered by oral gavage to groups of two dogs. Example 71 was also administered intravenously.
Blood samples were taken at various times after administration and submitted to analysis for the parent drug (Example 71) and pro-drug (Examples 72 and 73) using an LC-MS-MS assay. Pharmacokinetic parameters derived from the plasma analytical data were determined using Watson LIMS 7.2.003 (Thermo Fisher Scientific, Waltham, Mass.). The results are given in FIG. 1 and Tables 8, 9, 10, and 11.

[3] = Prodrug in vivo pharmacokinetics in monkeys (plasma, LC-MS-MS); set-up: species or system Monkey (Cynomolgus); conditions: for AUC / Cmax / Tmax / half-life: cynomolgus monkey; for F: calculated using IV AUC of 476 ng · h/mL
Method: Test substances (Examples 4 and 71-73) were administered by oral gavage to groups of two monkeys.
Blood samples were taken at various times after administration and submitted to analysis for the parent drug (Example 4 and Example 71) and pro-drug (Examples 72 and 73) using an LC-MS-MS assay. […] Pharmacokinetic parameters derived from the plasma analytical data were determined using Watson LIMS 7.2.003 (Thermo Fisher Scientific, Waltham, Mass.). The results are given in FIG. 2 and Tables 13, 14, and 15.

[4] = plasma, po, 2 mg/kg, Example 71 in dog plasma after oral Example 71 (2 mg/kg active), Dog 1
[5] = plasma, po, 2 mg/kg, Example 71 in dog plasma after oral Example 71 (2 mg/kg active), Dog 2
[6] = plasma, po, 2 mg/kg, Example 71 in dog plasma after oral Example 71 (2 mg/kg active), Mean
[7] = Cynomolgus, plasma, po, 3 mg/kg, Example 71 in monkey plasma after oral Example 71 (3 mg/kg active), Mean
[8] = Cynomolgus, plasma, po, 3 mg/kg, Example 71 in monkey plasma after oral Example 71 (3 mg/kg active), Monkey 1
[9] = Cynomolgus, plasma, po, 3 mg/kg, Example 71 in monkey plasma after oral Example 71 (3 mg/kg active), Monkey 2
[10] = Example 71 in monkey plasma after oral Example 71 (3 mg/kg active), Mean
[11] = Example 71 in monkey plasma after oral Example 71 (3 mg/kg active), Monkey 1
[12] = Example 71 in monkey plasma after oral Example 71 (3 mg/kg active), Monkey 2
[13] = plasma, po, 1 mg/kg, Example 72 in dog plasma after oral Example 72 (1 mg/kg active), Dog 1
[14] = plasma, po, 1 mg/kg, Example 72 in dog plasma after oral Example 72 (1 mg/kg active), Dog 2
[15] = plasma, po, 1 mg/kg, Example 72 in dog plasma after oral Example 72 (1 mg/kg active), Mean

Chain of human KAT II (hKAT II) enzyme (Q8N5Z0 30-425): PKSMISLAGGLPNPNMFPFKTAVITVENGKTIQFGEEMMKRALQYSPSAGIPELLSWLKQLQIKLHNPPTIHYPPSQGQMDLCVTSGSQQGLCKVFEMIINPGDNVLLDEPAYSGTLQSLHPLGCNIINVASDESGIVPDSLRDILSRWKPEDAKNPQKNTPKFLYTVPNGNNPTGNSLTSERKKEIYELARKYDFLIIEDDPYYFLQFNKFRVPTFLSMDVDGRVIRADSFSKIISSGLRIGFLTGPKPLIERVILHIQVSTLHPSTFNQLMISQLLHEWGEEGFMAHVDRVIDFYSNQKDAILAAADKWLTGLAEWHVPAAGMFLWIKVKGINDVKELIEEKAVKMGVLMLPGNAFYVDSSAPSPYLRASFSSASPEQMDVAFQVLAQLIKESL

Structure (SMILES): Cl.N[C@H]1Cc2cc(Oc3ccccc3)ccc2N(O)C1=O [Example 71, (3S)-3-amino-1-hydroxy-6-phenoxy-3,4-dihydroquinolin-2(1H)-one, hydrochloride salt]
- IC50 [1]: 22.7 nM
- AUC ([2]; in vivo, exposure of Example 71 in dogs following intravenous administration of Example 71 at 0.5 mg/kg, read-out: AUC): 247 ng·h/mL
- Cmax [2, 4]: 25.4 ng/mL
- Tmax [2, 4]: 15 min
- half-life [2, 4]: 26.3 min
- AUC ([2]; plasma, po, 2 mg/kg, Example 71 in dog plasma after oral Example 71 (2 mg/kg active), Dog 1, read-out: AUC): 10.3 ng·h/mL
- AUC ([2]; plasma, po, 2 mg/kg, Example 71 in dog plasma after oral Example 71 (2 mg/kg active), Dog 1, read-out: AUC Extrap): 10.7 ng·h/mL
- Cmax [2, 5]: 15.4 ng/mL
- Tmax [2, 5]: 15 min
- half-life [2, 5]: 17.9 min
- AUC ([2]; plasma, po, 2 mg/kg, Example 71 in dog plasma after oral Example 71 (2 mg/kg active), Dog 2, read-out: AUC): 12.2 ng·h/mL
- AUC ([2]; plasma, po, 2 mg/kg, Example 71 in dog plasma after oral Example 71 (2 mg/kg active), Dog 2, read-out: AUC Extrap): 12.5 ng·h/mL
- Cmax [2, 6]: 20.4 ng/mL
- Tmax [2, 6]: 15 min
- half-life [2, 6]: 22.1 min
- AUC ([2]; plasma, po, 2 mg/kg, Example 71 in dog plasma after oral Example 71 (2 mg/kg active), Mean, read-out: AUC): 11.3 ng·h/mL
- AUC ([2]; plasma, po, 2 mg/kg, Example 71 in dog plasma after oral Example 71 (2 mg/kg active), Mean, read-out: AUC Extrap): 11.6 ng·h/mL
- % AUC Extrap ([2]; Example 71 in dog plasma after oral Example 71 (2 mg/kg active), Dog 1): 3.44%
- % AUC Extrap ([2]; Example 71 in dog plasma after oral Example 71 (2 mg/kg active), Dog 2): 2.35%
- % AUC Extrap ([2]; Example 71 in dog plasma after oral Example 71 (2 mg/kg active), Mean): 2.9%
- F ([2]; Example 71 in dog plasma after oral Example 71 (2 mg/kg active), calculated using IV AUC of 247 ng · h/mL, Dog 1): 1.0%
- F ([2]; Example 71 in dog plasma after oral Example 71 (2 mg/kg active), calculated using IV AUC of 247 ng · h/mL, Dog 2): 1.3%
- F ([2]; Example 71 in dog plasma after oral Example 71 (2 mg/kg active), calculated using IV AUC of 247 ng · h/mL, Mean): 1.2%
- AUC ([3]; Cynomolgus, in vivo, plasma exposure of Example 71 in monkeys following intravenous administration of Example 71 at 0.5 mg/kg, read-out: AUC): 476 ng·h/mL
- Cmax [3, 7]: 53.4 ng/mL
- Tmax [3, 7]: 22.8 min
- half-life [3, 7]: 52.9 min
- Cmax [3, 8]: 44 ng/mL
- Tmax [3, 8]: 15 min
- half-life [3, 8]: 62.4 min
- Cmax [3, 9]: 62.8 ng/mL
- Tmax [3, 9]: 30 min
- half-life [3, 9]: 43.4 min
- % AUC Extrap [3, 10]: 1.28%
- % AUC Extrap [3, 11]: 2.19%
- % AUC Extrap [3, 12]: 0.366%
- F [3, 10]: 3.2%
- F [3, 11]: 2.2%
- F [3, 12]: 4.2%
- AUC ([3]; plasma, po, 3 mg/kg, Example 71 in monkey plasma after oral Example 71 (3 mg/kg active), Mean, read-out: AUC): 94.8 ng·h/mL
- AUC ([3]; plasma, po, 3 mg/kg, Example 71 in monkey plasma after oral Example 71 (3 mg/kg active), Mean, read-out: AUC Extrap): 95.4 ng·h/mL
- AUC ([3]; plasma, po, 3 mg/kg, Example 71 in monkey plasma after oral Example 71 (3 mg/kg active), Monkey 1, read-out: AUC): 55.5 ng·h/mL
- AUC ([3]; plasma, po, 3 mg/kg, Example 71 in monkey plasma after oral Example 71 (3 mg/kg active), Monkey 1, read-out: AUC Extrap): 56.7 ng·h/mL
- AUC ([3]; plasma, po, 3 mg/kg, Example 71 in monkey plasma after oral Example 71 (3 mg/kg active), Monkey 2, read-out: AUC): 134 ng·h/mL
- AUC ([3]; plasma, po, 3 mg/kg, Example 71 in monkey plasma after oral Example 71 (3 mg/kg active), Monkey 2, read-out: AUC Extrap): 134 ng·h/mL

Structure (SMILES): CN(C)C(=O)ON1C(=O)[C@@H](N)Cc2cc(Oc3ccccc3)ccc21 [Example 72, (3S)-3-amino-1-[(dimethylcarbamoyl)oxy]-6-phenoxy-3,4-dihydroquinolin-2(1H)-one]
- AUC ([2]; plasma, iv, 0.47 mg/kg, exposure of Example 72 in dogs following intravenous administration of Example 72 at 0.47 mg/kg, read-out: AUC): 497 ng·h/mL
- Cmax [2, 13]: 142 ng/mL
- Tmax [2, 13]: 30 min
- half-life [2, 13]: 139 min
- AUC ([2]; plasma, po, 1 mg/kg, Example 72 in dog plasma after oral Example 72 (1 mg/kg active), Dog 1, read-out: AUC): 402 ng·h/mL
- AUC ([2]; plasma, po, 1 mg/kg, Example 72 in dog plasma after oral Example 72 (1 mg/kg active), Dog 1, read-out: AUC Extrap): 455 ng·h/mL
- Cmax [2, 14]: 248 ng/mL
- Tmax [2, 14]: 60 min
- half-life [2, 14]: 116 min
- AUC ([2]; plasma, po, 1 mg/kg, Example 72 in dog plasma after oral Example 72 (1 mg/kg active), Dog 2, read-out: AUC): 721 ng·h/mL
- AUC ([2]; plasma, po, 1 mg/kg, Example 72 in dog plasma after oral Example 72 (1 mg/kg active), Dog 2, read-out: AUC Extrap): 790 ng·h/mL
- Cmax [2, 15]: 195 ng/mL
- Tmax [2, 15]: 45 min
- half-life [2, 15]: 128 min
- AUC ([2]; plasma, po, 1 mg/kg, Example 72 in dog plasma after oral Example 72 (1 mg/kg active), Mean, read-out: AUC): 562 ng·h/mL
- AUC ([2]; plasma, po, 1 mg/kg, Example 72 in dog plasma after oral Example 72 (1 mg/kg active), Mean, read-out: AUC Extrap): 623 ng·h/mL
- % AUC Extrap ([2]; Example 72 in dog plasma after oral Example 72 (1 mg/kg active), Dog 1): 11.7%
- % AUC Extrap ([2]; Example 72 in dog plasma after oral Example 72 (1 mg/kg active), Dog 2): 8.77%
- % AUC Extrap ([2]; Example 72 in dog plasma after oral Example 72 (1 mg/kg active), Mean): 10.2%
- F ([2]; Example 72 in dog plasma after oral Example 72 (1 mg/kg active), calculated using IV AUC of 497 ng · h/mL, Dog 1): 38%
- F ([2]; Example 72 in dog plasma after oral Example 72 (1 mg/kg active), calculated using IV AUC of 497 ng · h/mL, Dog 2): 54%
- F ([2]; Example 72 in dog plasma after oral Example 72 (1 mg/kg active), calculated using IV AUC of 497 ng · h/mL, Mean): 46%
- Plasma levels of Example 72 ([3]; monkeys, oral gavage of Example 72, all time points): below the limit of quantitation

Structure (SMILES): N[C@H]1Cc2cc(Oc3cc(F)cc(C(F)(F)F)c3)ccc2N(O)C1=O [Example 166, (3S)-3-amino-6-[3-fluoro-5-(trifluoromethyl)phenoxy]-1-hydroxy-3,4-dihydroquinolin-2(1H)-one, trifluoroacetate salt]
- IC50 [1]: 128 nM

Structure (SMILES): N[C@H]1Cc2cc(Oc3ccc(Cl)c(F)c3)ccc2N(O)C1=O [Example 167, (3S)-3-amino-6-(4-chloro-3-fluorophenoxy)-1-hydroxy-3,4-dihydroquinolin-2(1H)-one, trifluoroacetate salt]
- IC50 [1]: 105 nM

Structure (SMILES): N[C@H]1Cc2cc(Oc3cc(F)cc(Cl)c3)ccc2N(O)C1=O [Example 168, (3S)-3-amino-6-(3-chloro-5-fluorophenoxy)-1-hydroxy-3,4-dihydroquinolin-2(1H)-one, trifluoroacetate salt]
- IC50 [1]: 54.3 nM

Structure (SMILES): N[C@H]1Cc2cc(Oc3cccc(OC(F)(F)F)c3)ccc2N(O)C1=O [Example 169, (3S)-3-amino-1-hydroxy-6-[3-(trifluoromethoxy)phenoxy]-3,4-dihydroquinolin-2(1H)-one, trifluoroacetate salt]
- IC50 [1]: 123 nM

Structure (SMILES): N[C@H]1Cc2cc(Oc3cncc(Cl)c3)ccc2N(O)C1=O [Example 170, (3S)-3-amino-6-[(5-chloropyridin-3-yl)oxy]-1-hydroxy-3,4-dihydroquinolin-2(1H)-one, ammonium salt]
- IC50 [1]: 28.9 nM

Structure (SMILES): COc1ccc(Oc2ccc3c(c2)CC(N)C(=O)N3O)cn1 (centres unmarked) [Example 171, 3-amino-1-hydroxy-6-[(6-methoxypyridin-3-yl)oxy]-3,4-dihydroquinolin-2(1H)-one, ammonium salt]
- IC50 [1]: 42.8 nM
